Data published in patent US10138211B2, “Crystalline forms of olaparib and manufacturing processes therefor” (ScinoPharm Taiwan, Ltd., priority 2016, dated 2018).
Values after ≈ are worked out from the molar mass of the structure shown.

Assays:
[1] = Solubility of olaparib at 60° C. in solvents; assay type: physicochemical
Method: (§1) As used herein, the term “solvent” refers to a liquid substance capable of dissolving olaparib at a concentration of at least about 2.5% (w/w) at 60° C. The term “anti-solvent” refers to a liquid substance which is not capable of dissolving olaparib at a concentration of […] about 2.5% (w/w) at 60° C.

[2] = Solubility of olaparib at room temperature in solvents; assay type: physicochemical; conditions: for solubility: organic solvent or mixture
Method: as §1

- Solubility of olaparib at 60° C. ([1]; ACN): <2.1 wt %
- Solubility of olaparib at 60° C. ([1]; Cyclohexane): <2.1 wt %
- Solubility of olaparib at 60° C. ([1]; DMAc): >23.5 wt %
- Solubility of olaparib at 60° C. ([1]; EA): <1.8 wt %
- Solubility of olaparib at 60° C. ([1]; EtOH): 2.6-2.9 wt %
- Solubility of olaparib at 60° C. ([1]; IPA): <2.1 wt %
- Solubility of olaparib at 60° C. ([1]; MeOH): 6.7-8.8 wt %
- Solubility of olaparib at 60° C. ([1]; Pyridine): >21.5 wt %
- Solubility of olaparib at 60° C. ([1]; THF): <1.9 wt %
- Solubility of olaparib at 60° C. ([1]; Toluene): <1.9 wt %
- Solubility of olaparib at 60° C. ([1]; Xylenes): <1.9 wt %
- solubility ([1]; acetonitrile (ACN), organic solvent or mixture, ACN): < 16.2 mg/mL
- solubility ([1]; ethanol (EtOH), organic solvent or mixture, EtOH): 21 to 23 mg/mL (≈ 48.3 to 52.9 mM)
- solubility ([1]; isopropanol (IPA), organic solvent or mixture, IPA): < 16.2 mg/mL
- solubility ([1]; methanol (MeOH), organic solvent or mixture, MeOH): 53 to 70 mg/mL (≈ 122 to 161 mM)
- Solubility of olaparib at 60° C. ([1]; n-butanol): <2.1 wt %
- Solubility of olaparib at 60° C. ([1]; n-heptane): <2.4 wt %
- solubility ([1]; organic solvent or mixture, Cyclohexane): < 16.2 mg/mL
- solubility ([1]; organic solvent or mixture, DMAc): > 220 mg/mL
- solubility ([1]; organic solvent or mixture, EA): < 16.2 mg/mL
- solubility ([1]; organic solvent or mixture, Pyridine): > 210 mg/mL
- solubility ([1]; organic solvent or mixture, THF): < 16.9 mg/mL
- solubility ([1]; organic solvent or mixture, Toluene): < 16.9 mg/mL
- solubility ([1]; organic solvent or mixture, Xylenes): < 16.2 mg/mL
- solubility ([1]; organic solvent or mixture, n-butanol): < 16.9 mg/mL
- solubility ([1]; organic solvent or mixture, n-heptane): < 16.2 mg/mL
- Solubility of olaparib at 60° C. ([1]; water): <1.6 wt %
- solubility ([1]; water): < 16.2 mg/mL
- Solubility of olaparib at room temperature ([2]; AcOH): >20.0 wt %
- Solubility of olaparib at room temperature ([2]; DMSO): >19.1 wt %
- solubility ([2]; acetic acid (AcOH), AcOH): > 210 mg/mL
- solubility ([2]; DMSO): > 210 mg/mL
SMILES: O=C(c1cc(Cc2n[nH]c(=O)c3ccccc23)ccc1F)N1CCN(C(=O)C2CC2)CC1 [olaparib, 4-[(3-[(4-cyclopropylcarbonyl)piperazin-4-yl]carbonyl)-4-fluorophenyl]methyl(2H)phthalazin-1-one]
